# Test results reported in patent publication US20070292351A1, “Assay for efficacy of histone deacetylase inhibitors” (Methylgene, Inc., priority 2006, published 2007).
# Where “and” joins values, the source holds several entries; their conditions need not be identical. Equal entries are not always repeated. Where two headings read alike, the source gives them in different places.
# How the values were obtained:
# [1] = test system: peripheral white cells; assay: Cytokine/chemokine transcription in peripheral white cells of AML patients treated in vivo; design: species or system human; details: for induction of transcription of IL-6, IL-8, IL-1b, MIP1b: in vivo
# Method: FIG. 15 Induction of transcription of IL-6, IL-8, IL-1b, MIP1b cytokine/chemokines by MGCD0103 in peripheral white cells ex vivo from a MDS patient and in vivo in an AML patient with response (Patient J).
# Whole blood from either consenting healthy volunteers or consenting patients was centrifuged at 2500 rpm for 10 minutes at ambient temperature in a Sorvall RT-7 centrifuge (Mandel Scientific Co., Guelph, Ontario). Plasma was removed and buffy coat was collected. Five volumes of Erythrocyte Lysis Buffer (EL) (Qiagen Canada Inc., Mississauga, Ontario) were added into buffy coat. Buffy coat was incubated on ice for 20 minutes before it was centrifuged at 400 g for 10 minutes at 4° C. Supernatant was removed and buffy coat was washed twice with EL buffer and re-centrifuged. Buffy coat was resuspended in RPMI media and cells were counted with trypan blue exclusion. To isolate PBMCs, buffy coat cells were centrifuged over Lymphoprep (Axis-Shield, 1114544), and any remaining erythrocytes in the sample were lysed by treatment with EL lysis buffer (Qiagen, 79217). The cell pellets are washed and then re-suspended in RPMI containing 10% FBS.
# (§1) Human patients with either solid tumors or leukemia/MDS diseases were enrolled in phase I studies with consensus forms. MGCD0103 were dosed into patients orally every other day (day 1, day 3, day 5 […]). Blood samples were withdrawled by using the Vacutainer sodium-heparin blood collection tubes (Becton Dickinson Laboratories, Franklin Lakes, N.J.) and shipped to the test site within 24 hours on ice-pack. Baseline samples were drawn immediately prior to the first drug dose, while the 24 hour samples were drawn at 24 hours post the first drug dose. The 48 hours samples were drawn at 48 hours post the first dose. For the 1 week samples, blood was drawn 72 hours after day 5 dose (3 accumulated doses during week 1).
# [2] = test system: IL-6 and IL-8; assay: Cytokine antibody array of patient plasma; format: in vivo, human; details: two leukemia patients treated orally; cytokine antibody array (FIG. 16)
# Method: FIG. 16 Induction of IL-6 and IL-8 expression in plasma from two leukemia patients treated with MGCD0103 orally in vivo, as determined by cytokine antibody array.
# as §1
# 10 ml blood from patients were centrifuged at 2500 RPM for 10 min at 10° C. […] The levels of cytokines in the plasma were determined using the TranSignal Human Cytokine Antibody Array 1.0 (Cat#MA6120, Panomics Inc. Redwood City, Calif.) following the manufacturer's instructions. […] Blots were developed by autoradiography, scanned and quantitated using the Cyclone Software. Data was calculated, plotted using Excel and expressed as fold induction from Day 8 following treatment over baseline Day 0 samples.
# [3] = test system: human leukemic MV-4-11 cells; assay: Microarray gene expression analysis, MV-4-11 cells in vitro; format: cell-based; details: MV-4-11 in vitro, 1 uM, c2-c5 = sample 1, 2, 3, sample 3 dye swap
# Method: (§2) Human cancer cell lines were from American Type Culture Collection (Manassas, Va.) and were all cultured following the vendor's instructions.
# (§3) Biological analysis was performed using Biointerpreter software.
# [4] = test system: human H460 tumors in mice; assay: Microarray gene expression analysis, implanted H460 tumors in vivo
# Method: as §3
# Human non-small cell lung carcinoma NSCLC-H460 cells (2 million) were injected subcutaneously in the animal flank and allowed to form solid tumors. Tumor fragments were passaged in animals for a minimum of three times before their use. Tumor fragments (about 30 mg) were implanted subcutaneously through a small surgical incision under general anesthesia to Balb/cA female nude mice (6-8 weeks old). Recipient animals were treated with either vehicle (0.1 N HCl) or MGCD0103 (2HBr salt, in 0.1 N HCl) 100 mg/kg orally. Tumors were harvested after one dose of either 6 hour or 24 hours post administration of vehicle or MGCD0103. Each experimental group contained 3 animals. Tumor tissues were deposited in RNAlater (Qiagen, Missisauga Ontario) for total RNA extraction.
# [5] = test system: human colon HCT15 cells; assay: Microarray gene expression analysis, HCT15 cells in vitro; format: cell-based; details: HCT-15, HCT15 in vitro
# Method: as §2, §3
compound,measurement,setting,value
Nc1ccccc1NC(=O)c1ccc(CNc2nccc(-c3cccnc3)n2)cc1 [MGCD0103],expression level of other cytokine/chemokines,[1]; ex vivo/in vivo in patients (data not shown),either decreased or remained unmodified
same,"induction of transcription of IL-6, IL-8, IL-1b, MIP1b",[1]; AML patient with response (Patient A) (FIG. 15),induction
same,"induction of transcription of IL-6, IL-8, IL-1b, MIP1b","[1]; two AML patients without clinical response (Patient B, C) (FIG. 15)",No such induction
same,induction of IL-6 and IL-8 expression in plasma,[2],induction
same,"Ratio vs control, ADORA1",[3],3.6 and 5.4 and 5.1
same,"Ratio vs control, AHR",[3],11.3 and 10.5 and 13.1 and 10.2
same,"Ratio vs control, APOE",[3],5.9 and 6.3 and 6.0 and 6.1
same,"Ratio vs control, AXUD1",[3],2.5 and 3.9 and 3.1
same,"Ratio vs control, BMF",[3],6.0 and 7.4 and 6.7 and 7.1
same,"Ratio vs control, CARD10",[3],2.7 and 4.4 and 3.0 and 3.9
same,"Ratio vs control, CASP5",[3],2.7 and 2.5 and 3.0 and 2.6
same,"Ratio vs control, CASP7",[3],5.0 and 7.2 and 5.2 and 5.8
same,"Ratio vs control, CAST",[3],2.7 and 3.0 and 2.5 and 3.2
same,"Ratio vs control, CD40",[3],8.0 and 7.2 and 7.0 and 8.7
same,"Ratio vs control, CDKN1A",[3],4.4 and 4.0 and 4.6 and 3.9
same,"Ratio vs control, CLU",[3],20.2 and 13.8 and 14.7 and 14.4
same,"Ratio vs control, DNASE2",[3],10.5 and 11.4 and 12.1 and 12.9
same,"Ratio vs control, EIF2AK2",[3],17.9 and 21.1 and 18.1 and 26.7
same,"Ratio vs control, GPR65",[3],7.8 and 6.5 and 7.9 and 6.6
same,"Ratio vs control, HIPK2",[3],4.1 and 6.6 and 4.6 and 4.2
same,"Ratio vs control, IL1B",[3],9.6 and 11.2 and 8.5 and 11.4
same,"Ratio vs control, IL3RA",[3],4.4 and 4.3 and 5.1 and 3.3
same,"Ratio vs control, IL18",[3],4.5 and 7.9 and 6.5 and 5.5
same,"Ratio vs control, LY86",[3],4.5 and 3.6 and 3.8 and 4.3
same,"Ratio vs control, MAP3K14",[3],2.6 and 2.8
same,"Ratio vs control, MX1",[3],35.8 and 27.5 and 38.0 and 23.2
same,"Ratio vs control, NALP1",[3],7.3 and 7.4 and 6.4
same,"Ratio vs control, NGFR",[3],3.0 and 2.7 and 2.6 and 2.8
same,"Ratio vs control, PDE1B",[3],4.3 and 3.4 and 4.8 and 3.6
same,"Ratio vs control, PPP3CA",[3],2.7 and 3.0 and 3.3 and 2.6
same,"Ratio vs control, PRKAR2B",[3],10.8 and 7.2 and 11.1 and 7.6
same,"Ratio vs control, TNFRSF21",[3],4.1 and 6.4 and 4.7 and 5.2
same,"Ratio vs control, TNFRSF25",[3],4.2 and 4.0 and 4.4 and 3.6
same,"Ratio vs control, TNFSF10",[3],7.4 and 7.2 and 10.1 and 5.6
same,"Ratio vs control, TNFSF14",[3],5.1 and 3.7 and 3.9 and 4.6
same,"Ratio vs control, BNIP3L","[3]; gene listed twice (r23, r58)",4.9 and 3.2 and 3.4 and 2.6 and 3.5 and 2.9
same,"Ratio vs control, CASP4","[3]; gene listed twice (r64, r66)",2.7 and 2.8 and 2.6 and 2.9 and 3.0 and 2.5 and 3.1
same,Fold induction of CDKN1C transcription,[4],3.1 fold
same,Fold induction of CXCL14 transcription,[4],3.4 fold
same,Fold induction of IER3 transcription,[4],3.2 fold
same,Fold induction of KRTHA2 transcription,[4],2.6 fold
same,Fold induction of MT3 transcription,[4],2.2 fold
same,Fold induction of PROM1 transcription,[4],3.1 fold
same,Fold induction of SNIP transcription,[4],2.8 fold
same,Fold induction of SOD2 transcription,[4],2.8 fold
same,Fold induction of TNF transcription,[4],2.8 fold
same,fold induction at 1 µM,"[5]; probe A_23_P16523, read-out: Fold Induction of GDF15 transcription",4.18
same,fold induction at 1 µM,"[5]; probe A_23_P41344, read-out: Fold Induction of EREG transcription",4.62
same,fold induction at 1 µM,"[5]; probe A_23_P52336, read-out: Fold Induction of UNC5B transcription",5.7
same,fold induction at 1 µM,"[5]; probe A_23_P94754, read-out: Fold Induction of TNFSF15 transcription",4.11
same,fold induction at 1 µM,"[5]; probe A_23_P114947, read-out: Fold Induction of RGS2 transcription",2.75
same,fold induction at 1 µM,"[5]; probe A_23_P142506, read-out: Fold Induction of GADD45B transcription",3.1
same,fold induction at 1 µM,"[5]; probe A_23_P149019, read-out: Fold Induction of BAI2 transcription",5.13
same,fold induction at 1 µM,"[5]; probe A_23_P151046, read-out: Fold Induction of KLRC1 transcription",9.29
same,fold induction at 1 µM,"[5]; probe A_23_P259071, read-out: Fold Induction of AREG transcription",9.39
same,fold induction at 1 µM,"[5]; probe A_23_P315273, read-out: Fold Induction of MT3 transcription",7.65
same,fold induction at 1 µM,"[5]; probe A_24_P5856, read-out: Fold Induction of TNFSF9 transcription",2.96
same,fold induction at 1 µM,"[5]; probe A_24_P217520, read-out: Fold Induction of EREG transcription",4.14
